Data reported in publication PMC10707468, “Pharmacokinetics of Novel Dopamine Transporter Inhibitor CE-123 and Modafinil with a Focus on Central Nervous System Distribution” (International Journal of Molecular Sciences, 2023).
Where two headings read alike, the source gives them in different places.

Columns and labels:
[1] = Systemic pharmacokinetic parameters used in simulation exercise; assay type: in vivo, rat; conditions: parameter used in simulation; for clearance / Vd: plasma; for clearance: rat 0.3 kg, read-out: Systemic clearance, CL (converted); for Vd: rat, read-out: Apparent volume of distribution, Vd
Protocol: In order to minimize the usage of animals and gain high confidence in the tissue distribution, a 4 h constant intravenous infusion study was designed based on the systemic pharmacokinetic parameters determined elsewhere. The catheters were surgically implanted a day before the PK experiment. The rats (n = 3 per compound) were then individually placed into a CMA 120 system (CMA, Solna, Sweden). […] A dose of 20 mg/kg was administered as a combination of an initial short 10 min infusion as a loading dose followed by a constant infusion up to 4 h, targeting a steady-state total plasma concentration of around 1000 ng/mL for each compound (based on the pilot study results). Blood was collected into heparinized Eppendorf tubes via a femoral artery catheter at 0 (before infusion starts) 1, 2, 3, and 4 h after the infusion started and immediately centrifuged at 10,000 rpm for 5 min at +4 °C. Plasma was then collected and kept at −20 °C. At 4 h, the rats were anesthetized via inhalation of 2.5% isoflurane (Abbot Scandinavia, Solna, Sweden), balanced with 1.5 L/min oxygen, after which the terminal blood and tissue samples were collected. […] The tissue samples (brain, spinal cord, liver, and kidney) were rapidly removed, pre-weighed into a 2 mL hard tissue homogenizing tube with mini-beads, and subsequently homogenized in 2 volumes of MQ water using a 4-Place Bead Mill Homogenizer (VWR, Stockholm, Sweden) at the maximal speed for 2 min and thereafter kept at +4 °C. The plasma and tissue homogenate samples were stored at −20 °C until LC–MS analysis.
The simulation was performed at a given initial total plasma concentration to be equal to the steady-state concentrations obtained in the neuroPK study, utilizing the parameters listed in Supplementary Table S4. A two-compartment model consisting of blood and brain compartments with a focus on the unbound concentrations was used for the simulation exercise (see details on the structure of the model in Supplementary Figure S5). The representative unbound plasma and brain profiles are presented in Supplementary Figure S6.
Table S4. Parameters used in simulation exercise.
Fraction of un bound in unitless 0.252 0.797
Rate of BBB transport parameters*
Ext ent of BBB transport and intra-brain dist ribution
Unbound brain-t o-plasma unitless 0.46 0.097 concentrati on rat io, Kp,uu,brain
Unbound volume of mL/g brain 5.21 3.73 distribution in brain, Vu,brain
Additional parameters used
Infusi on rate mg/h 0.05 1.0
* Data of blood-brain barrier per meation of 100 µM CE-123 and modafinil across an in vitro Transw ell model based on mouse cell line cerebEND were included in the simulation. Experimental procedures were published previously The permeability coefficients w ere calculated according to the clearance principle deduct ing blank inserts without cells.
**Similar apparent permeability in human BBB cell culture model and rat endot helial cells was assumed.

[2] = In vitro metabolic stability in human liver microsomes; assay type: in vitro ADME; conditions: for % of the parent drug remaining / half-life at 1 µM / microsomal CLint at 1 µM: 1 µM; for % of the parent drug remaining: 60 min incubation; for half-life at 1 µM / microsomal CLint at 1 µM: human, human liver microsomes, pH 7.4; for half-life at 1 µM: 0.5 mg/mL protein, read-out: half-life (t1/2); for microsomal CLint at 1 µM: read-out: intrinsic clearance (CLint)
Protocol: An in vitro metabolism assay to study the phase I metabolism in the HLMs was in-house-developed. Optimization of the protocol included the test compound concentration (1, 5, 10 m and 50 µM) and extraction solvents (ACN and MeOH). […] The metabolic assay was initiated by the addition of 10 mM NADPH to the reaction solution and terminated after 0, 2.5, 5, 15, 30, 45, and 60 min via the addition of 200 µL of ice-cold MeOH containing the IS solution. The samples were than vortexed and spun for 15 min (14,000× g, 4 °C). The supernatant was collected, evaporated to dryness using the Concentrator plus (Eppendorf), and reconstituted with 100 µL of ACN/0.1% FA in water 10:90 (v:v). To ensure that the assay was performing adequately, the incubation of 1 µM diazepam at the same assay conditions as described was conducted, and the formation of its metabolites temazepam and nordazepam was monitored. A negative control included the absence of NADPH, the test compound, or HLMs during assay. […] The metabolic stability curves of the tested compounds were established by plotting the incubation time against the natural logarithm of the % parent drug remaining. The slope (k) of the linear part was utilized for the in vitro half-life (t1/2, min) as ln2/k. The V (µL/mg) was calculated as the volume of the reaction solution (100 µL) divided by the protein amount in the incubation (0.5 mg). The protein amount was predetermined by the supplier and the content was checked by using a Pierce™ BCA Protein Assay Kit (Thermo Fisher Scientific, Vienna, Austria) for each freshly opened tube. The intrinsic clearance (CLint, µL/min/mg) was calculated according to the following equation:(7) CLint=0.693/t1/2·V […]

[3] = Equilibrium dialysis, plasma protein binding; assay type: in vitro ADME, rat; conditions: for free (unbound) in plasma / Fraction unbound in plasma, fu,plasma: rat plasma; for Fraction unbound in plasma, fu,plasma / fraction unbound at 5 h, 10 µM: 10 µM, 5 h, 37 °C, plasma with 10% DMF; for fraction unbound at 5 h, 10 µM: rat, undiluted rat plasma containing 10% DMF, pH 7.4, rat plasma, read-out: Fraction unbound in plasma, fu,plasma
Protocol: (§1) A Teflon 96-well plate (model HTD96b, HTDialysis LLC, Gales Ferry, CT, USA) was used in all tissue-binding experiments. Th evaluation of PPB was determined according to van Liempd et al. (2011) and BTB according to the previously published protocols. […] The whole brain tissue from three rats was individually homogenized in 9 volumes of phosphate-buffered saline (PBS), pH 7.4. […] Then, 100 µL of spiked plasma or brain tissue homogenate in triplicate was dialyzed against an equal volume of PBS, pH 7.4, for 5 h at 37 °C and 200 rpm. Furthermore, 50 µL was taken from both sides of the membrane at the end of incubation. The unbound fraction of the compounds in the plasma (fu,plasma) or in the diluted (D) brain homogenate (fu,hD) was calculated according to the following equation:(1) fu,plasma or fu,hD=Cbuffer/Ctissue where Cbuffer represents the concentration of the compound measured in the buffer and Ctissue is the concentration measured in the plasma or brain tissue homogenate. Due to dilution, fu,hD is usually higher than the actual fu,brain. Thus, fu,hD was corrected for the dilution factor (D), which is in this case 10 times. (2) fu,brain=fu,hD/D+fu,hD−D·fu,hD

[4] = system: cerebEND in vitro model of the blood–brain barrier; conditions: 100 µM CE-123 and modafinil, Transwell cerebEND, blank inserts deducted; cited from earlier work
DAT = conditions: read-out: Half-maximal inhibitory concentration, IC50, cited from earlier work
[5] = Equilibrium dialysis, brain tissue binding; assay type: in vitro ADME, rat; conditions: for fraction unbound at 5 h, 10 µM: whole brain homogenate (1:9 in PBS), rat brain homogenate 1:9 in PBS pH 7.4, 10 µM, corrected for dilution, read-out: Fraction unbound in brain homogenate, fu,brain
Protocol: as §1

Compound | Systemic clearance unbound, Clu [1] | clearance [1] | Vd [1] | % of the parent drug remaining ([2]; HLMs) | metabolized ([2]; HLMs, 5, 10 and 50 µM) | half-life at 1 µM ([2]; HLMs) | microsomal CLint at 1 µM ([2]; HLMs) | free (unbound) in plasma [3] | Fraction unbound in plasma, fu,plasma [3] | fraction unbound at 5 h, 10 µM [3] | Pe (permeability coefficient) [4] | IC50 (DAT; ref Loland et al. 2012 [27]) | fraction unbound at 5 h, 10 µM [5] | fold faster metabolism compared to R-modafinil ([2]; HLMs) | IC50 (DAT; ref Kristofova et al. 2018 [36]) | brain tissue binding capacity, fold higher compared to R-modafinil ([5]; rat brain homogenate)
NC(=O)C[S@@+]([O-])C(c1ccccc1)c1ccccc1 [R-modafinil, reference compound] | 1.194 L/h | 25 mL/min | 1.02 L | 90% | ≤ 10% | 6.07 h | […] | 80% | 0.797 ± 0.15 unitless | 0.79 | 38.3 ×10⁻⁶ cm/s | […] | 0.23 ± 0.1 | – | – | –
[O-][S@@+](Cc1cncs1)C(c1ccccc1)c1ccccc1 [S-CE-123] | 0.046 L/h | 3.07 mL/min | 0.232 L | 35% | – | 0.65 h | 3.6 µL/min/mg | 25% | 0.252 ± 0.023 unitless | 0.25 | 50 ×10⁻⁶ cm/s | – | 0.035 ± 0.012 | 9.3 fold | 4.6 µM | 6.6 fold
